Measurements published in US20070117743A1, “New antitumoral compounds” (priority 2003, published 2007).
Read-outs that look alike come from different tables or passages of the source. Where a SMILES comes first, the peptide text is derived from it. Bridges are numbered along the chain shown (N, C = ends). [ ]: non-standard residue; d: D form. The star is where a group is joined. d(aIle) = CC[C@H](C)[C@@H](N)C(=O)O; d(aThr) = C[C@@H](O)[C@@H](N)C(=O)O; Hexanoyl(5-Me) = CC(C)CCCC(=O)*; Orn = NCCC[C@H](N)C(=O)O; Dhb = C/C=C(\N)C(=O)O

Columns and labels:
Format in all cases: cell-based, human
LNCaP = assay: SRB colorimetric assay of cell growth and viability, LNCaP; conditions: 48 hours exposure; for GI50: read-out: GI50 LN-caP; for CC50: read-out: LC50 LN-caP
LoVo = assay: SRB colorimetric assay of cell growth and viability, LoVo; conditions: 48 hours exposure; for CC50: read-out: LC50 LOVO
SK-MEL-28 = assay: SRB colorimetric assay of cell growth and viability, SK-MEL-28; conditions: 48 hours exposure; for CC50: read-out: LC50 MEL-28
SK-BR-3 = assay: SRB colorimetric assay of cell growth and viability, SK-BR-3; conditions: 48 hours exposure
IGROV-ET = assay: SRB colorimetric assay of cell growth and viability, IGROV-ET; conditions: 48 hours exposure; for CC50: read-out: LC50 IGROV-ET
DU-145 = assay: SRB colorimetric assay of cell growth and viability, DU-145; conditions: 48 hours exposure
A-549 = assay: SRB colorimetric assay of cell growth and viability, A-549; conditions: 48 hours exposure; for GI50: read-out: GI50 A-549; for CC50: read-out: LC50 A-549
HeLa = assay: SRB colorimetric assay of cell growth and viability, HeLa; conditions: 48 hours exposure; for CC50: read-out: LC50 HELA
LoVo-Dox = assay: SRB colorimetric assay of cell growth and viability, LoVo-Dox; conditions: 48 hours exposure; for CC50: read-out: LC50 LOVO-DOX
Summary of the method: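 Optical density at 490 nm of solubilized SRB, from triplicate wells, yields GI, TGI and LC values. Before staining, cells are fixed for 60 minutes at 4° C in cold TCA after a 48-hour exposure.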

HT-29 = assay: SRB colorimetric assay of cell growth and viability, HT-29; conditions: 48 hours exposure; for GI50: read-out: GI50 HT-29; for CC50: read-out: LC50 HT-29
HeLa-APL = assay: SRB colorimetric assay of cell growth and viability, HeLa-APL; conditions: 48 hours exposure; for CC50: read-out: LC50 HELA-APL
IGROV-1 = assay: SRB colorimetric assay of cell growth and viability, IGROV-1; conditions: 48 hours exposure
K-562 = assay: SRB colorimetric assay of cell growth and viability, K-562; conditions: 48 hours exposure; for CC50: read-out: LC50 K-562
PANC-1 = assay: SRB colorimetric assay of cell growth and viability, PANC-1; conditions: 48 hours exposure; for CC50: read-out: LC50 PANC-1

C/C=C1\NC(=O)[C@H](Cc2ccccc2)NC(=O)[C@@H](C(C)C)NC(=O)[C@@H]([C@@H](C)CC)NC(=O)[C@H](NC(=O)[C@H](NC(=O)[C@H](CCCN)NC(=O)[C@H]2CCCN2C(=O)[C@H](NC(=O)[C@H](CCCN)NC(=O)[C@@H](NC(=O)[C@H](NC(=O)CCCC(C)C)C(C)C)[C@@H](C)O)C(C)C)[C@@H](C)CC)[C@@H](C)OC(=O)[C@H](C(C)C)NC1=O [Compound 49, [Orn^11]-KF] ({Hexanoyl(5-Me)}-[dV]T[Orn][dV][dP][Orn][d(aIle)][d(aThr)][d(aIle)][dV]F[Dhb]V; ester 8-C)
1.47 µM: GI50 (LoVo)
3.22 µM: GI50 (LoVo-Dox)
6.70E−06 Molar: TGI LN-caP (LNCaP) | TGI A-549 (A-549) | TGI LOVO-DOX (LoVo-Dox)
5.97 µM: LC50 (concentration causing 50% net cell killing) (IGROV-1)
5.95 µM: CC50 (HeLa-APL)
4.69 µM: CC50 (SK-MEL-28)
2.61 µM: GI50 (A-549)
1.33 µM: GI50 (SK-MEL-28)
5.15E−06 Molar: TGI IGROV-ET (IGROV-ET)
0.15 µM: GI50 (K-562)
3.09E−06 Molar: TGI PANC-1 (PANC-1)
2.50E−06 Molar: TGI MEL-28 (SK-MEL-28) | TGI DU-145 (DU-145)
1.58 µM: GI50 (HT-29)
6.7 µM: CC50 (LNCaP) | CC50 (LoVo) | LC50 (SK-BR-3) | CC50 (IGROV-ET) | CC50 (A-549) | CC50 (LoVo-Dox) | CC50 (HT-29) | CC50 (K-562) | CC50 (PANC-1)
1.1 µM: GI50 (HeLa)
1.07 µM: GI50 (HeLa-APL)
2.20E−06 Molar: TGI HELA (HeLa)
1.31 µM: GI50 (PANC-1)
4.4 µM: CC50 (HeLa)
2.75E−06 Molar: TGI IGROV (IGROV-1)
1.94 µM: GI50 (SK-BR-3)
2.2 µM: GI50 (LNCaP)
3.74E−06 Molar: TGI HT-29 (HT-29)
2.52E−06 Molar: TGI HELA-APL (HeLa-APL)
1.67E−06 Molar: TGI K-562 (K-562)
1.09 µM: GI50 (DU-145)
5.75 µM: LC50 (concentration causing 50% net cell kill) (DU-145)
5.57E−06 Molar: TGI SK-BR-3 (SK-BR-3)
1.27 µM: GI50 (IGROV-1)
3.80E−06 Molar: TGI LOVO (LoVo)
1.91 µM: GI50 (IGROV-ET)

C/C=C1\NC(=O)[C@H](Cc2ccccc2)NC(=O)[C@@H](C(C)C)NC(=O)[C@@H]([C@@H](C)CC)NC(=O)[C@H](NC(=O)[C@H](NC(=O)[C@H](CCCN)NC(=O)[C@H]2CCCN2C(=O)[C@H](NC(=O)[C@@H](NC(=O)[C@@H](NC(=O)[C@H](NC(=O)CCCC(C)C)C(C)C)[C@@H](C)O)[C@@H](C)O)C(C)C)[C@@H](C)CC)[C@@H](C)OC(=O)[C@H](C(C)C)NC1=O [Compound 50, [Thr^11]-KF] ({Hexanoyl(5-Me)}-[dV]TT[dV][dP][Orn][d(aIle)][d(aThr)][d(aIle)][dV]F[Dhb]V; ester 8-C)
≥ 6.7 µM: GI50 (DU-145)
5.1 µM: CC50 (LoVo-Dox)
3.76 µM: GI50 (HT-29) | GI50 (IGROV-1)
1.27 µM: GI50 (LoVo-Dox)
2.54E−06 Molar: TGI LOVO-DOX (LoVo-Dox)
2.7 µM: GI50 (IGROV-ET)
6.76E−06 Molar: TGI LN-caP (LNCaP) | TGI MEL-28 (SK-MEL-28) | TGI IGROV-ET (IGROV-ET) | TGI DU-145 (DU-145) | TGI A-549 (A-549) | TGI HELA (HeLa) | TGI HT-29 (HT-29) | TGI HELA-APL (HeLa-APL) | TGI IGROV (IGROV-1) | TGI K-562 (K-562) | TGI PANC-1 (PANC-1)
0.899 µM: GI50 (SK-BR-3)
2.80E−06 Molar: TGI LOVO (LoVo)
4.16 µM: GI50 (PANC-1)
2.58E−06 Molar: TGI SK-BR-3 (SK-BR-3)
≥ 6.76 µM: GI50 (LNCaP) | CC50 (LNCaP) | GI50 (SK-MEL-28) | CC50 (SK-MEL-28) | LC50 (SK-BR-3) | CC50 (IGROV-ET) | LC50 (concentration causing 50% net cell kill) (DU-145) | GI50 (A-549) | CC50 (A-549) | CC50 (HeLa) | CC50 (HT-29) | GI50 (HeLa-APL) | CC50 (HeLa-APL) | LC50 (concentration causing 50% net cell killing) (IGROV-1) | GI50 (K-562) | CC50 (K-562) | CC50 (PANC-1)
6.47 µM: CC50 (LoVo)
1.21 µM: GI50 (LoVo)
5.58 µM: GI50 (HeLa)

C/C=C1\NC(=O)[C@H](Cc2ccccc2)NC(=O)[C@@H](C(C)C)NC(=O)[C@@H]([C@@H](C)CC)NC(=O)[C@H](NC(=O)[C@H](NC(=O)[C@H](CCCN)NC(=O)[C@H]2CCCN2C(=O)[C@H](NC(=O)[C@H](CCC(=O)O)NC(=O)[C@@H](NC(=O)[C@H](NC(=O)CCCC(C)C)C(C)C)[C@@H](C)O)C(C)C)[C@@H](C)CC)[C@@H](C)OC(=O)[C@H](C(C)C)NC1=O [Compound 51, [Glu^11]-KF] ({Hexanoyl(5-Me)}-[dV]TE[dV][dP][Orn][d(aIle)][d(aThr)][d(aIle)][dV]F[Dhb]V; ester 8-C)
6.63 µM: GI50 (LNCaP) | CC50 (LNCaP) | GI50 (LoVo) | CC50 (LoVo) | GI50 (SK-MEL-28) | CC50 (SK-MEL-28) | GI50 (SK-BR-3) | LC50 (SK-BR-3) | GI50 (IGROV-ET) | CC50 (IGROV-ET) | GI50 (DU-145) | LC50 (concentration causing 50% net cell kill) (DU-145) | GI50 (A-549) | CC50 (A-549) | GI50 (HeLa) | CC50 (HeLa) | GI50 (LoVo-Dox) | CC50 (LoVo-Dox) | GI50 (HT-29) | CC50 (HT-29) | GI50 (HeLa-APL) | CC50 (HeLa-APL) | GI50 (IGROV-1) | LC50 (concentration causing 50% net cell killing) (IGROV-1) | GI50 (K-562) | CC50 (K-562) | GI50 (PANC-1) | CC50 (PANC-1)
6.63E−06 Molar: TGI LN-caP (LNCaP) | TGI LOVO (LoVo) | TGI MEL-28 (SK-MEL-28) | TGI SK-BR-3 (SK-BR-3) | TGI IGROV-ET (IGROV-ET) | TGI DU-145 (DU-145) | TGI A-549 (A-549) | TGI HELA (HeLa) | TGI LOVO-DOX (LoVo-Dox) | TGI HT-29 (HT-29) | TGI HELA-APL (HeLa-APL) | TGI IGROV (IGROV-1) | TGI K-562 (K-562) | TGI PANC-1 (PANC-1)

C/C=C1\NC(=O)[C@H](Cc2ccccc2)NC(=O)[C@@H](C(C)C)NC(=O)[C@@H]([C@@H](C)CC)NC(=O)[C@H](NC(=O)[C@H](NC(=O)[C@H](CCCN)NC(=O)[C@H]2CCCN2C(=O)[C@H](NC(=O)[C@@H](NC(=O)[C@H](CCC(N)=O)NC(=O)CCCC(C)C)C(C)C)C(C)C)[C@@H](C)CC)[C@@H](C)OC(=O)[C@H](C(C)C)NC1=O [Compound 58, [Gln^12, noD-Val^13]-KF] ({Hexanoyl(5-Me)}-QV[dV][dP][Orn][d(aIle)][d(aThr)][d(aIle)][dV]F[Dhb]V; ester 7-C)
≥ 7.11 µM: GI50 (LNCaP) | CC50 (LNCaP) | GI50 (LoVo; SRB) | CC50 (LoVo; SRB) | GI50 (SK-MEL-28) | CC50 (SK-MEL-28) | GI50 (SK-BR-3) | LC50 (SK-BR-3) | GI50 (IGROV-ET) | CC50 (IGROV-ET) | GI50 (DU-145) | LC50 (concentration causing 50% net cell kill) (DU-145) | GI50 (A-549; SRB) | CC50 (A-549; SRB) | GI50 (HeLa; SRB) | CC50 (HeLa; SRB) | GI50 (LoVo-Dox; SRB) | CC50 (LoVo-Dox; SRB) | GI50 (HT-29; SRB) | CC50 (HT-29; SRB) | GI50 (HeLa-APL; SRB) | CC50 (HeLa-APL; SRB) | GI50 (IGROV-1) | LC50 (concentration causing 50% net cell killing) (IGROV-1) | GI50 (K-562; SRB) | CC50 (K-562; SRB) | GI50 (PANC-1; SRB) | CC50 (PANC-1; SRB)
7.11E−06 Molar: TGI LN-caP (LNCaP) | TGI LOVO (LoVo; SRB) | TGI MEL-28 (SK-MEL-28) | TGI SK-BR-3 (SK-BR-3) | TGI IGROV-ET (IGROV-ET) | TGI DU-145 (DU-145) | TGI A-549 (A-549; SRB) | TGI HELA (HeLa; SRB) | TGI LOVO-DOX (LoVo-Dox; SRB) | TGI HT-29 (HT-29; SRB) | TGI HELA-APL (HeLa-APL; SRB) | TGI IGROV (IGROV-1) | TGI K-562 (K-562; SRB) | TGI PANC-1 (PANC-1; SRB)
